Assay [1] relates to zebrafish αβδ nAChR. The assay is classed as cell-based, zebrafish (Danio rerio).
Assay [2] has as its system zebrafish αβδ nAChR. It counts as cell-based, zebrafish (Danio rerio). The source holds these as a separate data set.

Broadly, the koff is the first-order rate constant of dissociation. A low value points to a long-lived complex. Broadly, the pIC50 is the negative decadic logarithm of the IC50, by convention in mol/L.

Each structure is given as a SMILES string. pIC50: −log10 of the molar value. “Also recorded” adds a separate entry of the source. Where two headings read alike, the source gives them in different places. Bridge positions count the residues as written; N and C are the ends. Square brackets hold non-standard residues; d marks the D form. Peptide text beside a SMILES is read from it. pGlu = O=C1CC[C@@H](C(=O)O)N1

`CC[C@H](C)[C@@H]1NC(=O)[C@H](CC(C)C)NC(=O)[C@H](CCCNC(=N)N)NC(=O)[C@H](CC(=O)O)NC(=O)[C@H](CCCNC(=N)N)NC(=O)[C@H](Cc2ccccc2)NC(=O)[C@H](Cc2ccc(O)cc2)NC(=O)[C@H](CC(C)C)NC(=O)[C@@H]2CCCN2C(=O)[C@@H]2CSSC[C@@H](C(=O)O)NC(=O)[C@@H]3CSSC[C@H](NC(=O)[C@H](CCCCN)NC(=O)[C@@H]4CCC(=O)N4)C(=O)N[C@@H](CSSC[C@H](NC1=O)C(=O)N1CCC[C@H]1C(=O)N3)C(=O)N[C@@H](CO)C(=O)NCC(=O)NCC(=O)N[C@@H](CO)C(=O)N2` [αM-MIIIJ] ([pGlu]KCCSGGSCPLYFRDRLICPCC-OH; disulfide 3-21, 4-19, 9-22): in the assay on zebrafish αβδ nAChR [1], the “protection against α-BgTX block” value is listed as “largely protected” and the “protection against α-EI block” value is “rapidly reversed upon toxin washout; also recorded: completely protected”. In addition, in the assay with zebrafish αβδ nAChR [2], the “affinity of αβδ relative to αβδε and αβδγ” value was “about a factor of two higher”; the dissociation rate constant (koff) came out at 0.0417 s⁻¹; the “recovery of IACh on washout” value was “recovered almost completely within a minute”; the reversibility of block entry is given as “readily reversible”. The pIC50 in the assay with zebrafish αβδ nAChR [2] (read-out: IC50) was 7.48. Further, in the assay on zebrafish αβδ nAChR [2] (read-out: IC50 (range statement)), the pIC50 was roughly 7.30.
